Values quoted from earlier work, collected in US11696883B2, “Compositions for reducing hair loss and/or increasing hair regrowth” (Triple Hair Inc., priority 2014, dated 2023).
Where two headings read alike, the source gives them in different places.

Columns and labels:
[1] = latanoprost in ophthalmology use
[2] = test system: prostaglandin endoperoxide synthase-1 (PGHS-1); conditions: Michelet et al. 1997
hair loss = conditions: topical

For CC(C)(C)NC(=O)[C@H]1CC[C@H]2[C@@H]3CC[C@H]4NC(=O)C=C[C@]4(C)[C@H]3CC[C@]12C [Finasteride, (5α,17β)-N-(1,1-Dimethylethyl)-3-oxo-4-azaandrost-1-ene-17-carboxamide], the “solubility” value (in 0.1N HCl and 0.1N NaOH) is given as “very slightly soluble”, the “solubility” value (in chloroform, DMSO, ethanol, methanol, n-propanol) is given as “freely soluble” and the “solubility” value (in propylene glycol, polyethylene glycol 400) is given as “sparingly soluble”. The “solubility” value (in water) was “not soluble”.
In the case of CC(C)OC(=O)CCC/C=C\C[C@@H]1[C@@H](CC[C@@H](O)CCc2ccccc2)[C@H](O)C[C@@H]1O [Latanoprost], the other adverse effects [1] is listed as “erythema, folliculitis, sensation of burning and erysipelas”, the side effects [1] is listed as “augmentation of periocular hirsuteness” and the “solubility” value (in acetone, ethanol, ethyl acetate, isopropanol, methanol and octanol) is listed as “freely soluble”. For the same compound, the “solubility” value (in acetonitrile) was “very soluble” and the “solubility” value (in water) was “practically insoluble”.
In the case of Nc1cc(N2CCCCC2)nc(N)[n+]1[O-] [Minoxidil, 6-(1-pipedidinyl)-2,4-pyrimidinediamine 3-oxide], the “activation of purified PGHS-1” value [2] is given as “potent activator” and the “effective in promoting regrowth of the hair” value (hair loss) is given as “less than 40%”.
